This is an account of results in a melting point compilation (Tetko et al.; mined from patent text by program, amines drawn as free bases though some values may be those of a salt).

What is called melting point is the temperature, or range, at which the solid turns liquid.

`CCCCCCCCc1ccc(CCC(NC(C)=O)(C(O)OC(C)=O)C(O)OC(C)=O)cc1` (centres undefined): the melting point is 105 to 107 °C.
The figure for `CC1CN(C(=O)C(Cl)Cl)C(C)CN1C(=O)C(Cl)Cl` (centres undefined) is 215 °C; for `Cc1cc(C)c2c(c1)c1c(n2Cc2ccc(Cl)cc2)C(CC(=O)O)CCC1` (centres undefined) it is 187 to 188 °C; for `CCOc1ccc(S(=O)(=O)N2CCN(C)CC2)cc1C=O` it is 107 to 108 °C.
`C=CCOC(=O)c1ccc(COC(=O)c2cc(C(C)(C)C)c(O)c(C(C)(C)C)c2)cc1` registered a melting point of 100 to 101 °C.
The compound `CN(CC#CI)c1nc(CO)cs1` returned a melting point of 118 to 119 °C.
`O=C(C(Cl)(Cl)Cl)C1(c2ccc(Cl)cc2)C=CC=N1` (centres undefined) returned a melting point of 166 to 168 °C.
In turn, `FC(F)(F)CNC(=S)Nc1cccc(COC(=S)NCC(F)(F)F)n1` gave a melting point of 173 to 175 °C.
Regarding `C[C@@H](Oc1cc(-c2ncc(C(F)(F)F)cc2F)c(F)cc1Cl)C(=O)O`, the melting point lay in the range of 48 to 50 °C.
For `O=C(OCc1ccccc1)N1C(=O)[C@H](O)[C@@H]1c1ccccc1`, the melting point is 105 to 106 °C.
Compound `CC1(C)Cc2c(ccc3c2C(c2cccc(-c4ccc(C(=O)O)cc4)c2)=NCC3(C)C)O1` returned a melting point of 286 to 291 °C.
`CN(O)C(=O)NC1CCCc2sccc21` (centres undefined) showed a melting point of 98 to 102 °C.
With `CCC(=O)c1ccnc(OC)c1`, the melting point was 38 °C.
The compound `CNC(=O)Nc1cc(NC(=O)/C=C/c2ccc(C(C)(C)C)cc2)ccc1Cl` showed a melting point of 120 to 122 °C.
For `O=c1[nH][nH]c(=O)c(-c2c(F)cc(F)cc2F)c1-c1ccc(Br)cc1`, the melting point was in the range of 134 to 137 °C.
As for `CCOC(=O)c1ccc(/C=C(\C)c2cc3c(s2)C(C)(C)CCC3(C)C)nc1`, the melting point fell in the range of 83 to 84 °C.
`OC[C@H](O)[C@@H](O)CCNCc1ccccc1` registered a melting point of 117 to 118 °C.
`C=CCN(CC=C)Cc1nc(-c2ncn3c2[C@@H]2CCN2C(=O)c2cc(F)ccc2-3)no1` displayed a melting point of 100 to 105 °C.
For the compound `Cc1ccc(S(=O)(=O)Oc2cccc(C=O)c2)cc1`, the melting point was 65 to 67 °C.
Compound `COC(=O)c1ccc(OC)c2c1OCCCO2` gave a melting point of 212 °C.
In turn, `Cc1ccc(S(=O)(=O)N(CCCl)N(S(C)(=O)=O)S(C)(=O)=O)cc1` gave a melting point of 99 to 101 °C.
The same measure for `CC(=O)OC(CBr)Cc1c(O)ccc2ncccc12` (centres undefined): 146 to 148 °C; for `O=C(CC(CSc1nc2ccccc2s1)C(=O)NC1CCCCC1)NC1CCCCC1` (centres undefined): 147 to 149 °C; for `Cn1c(=O)[nH]c2nccnc2c1=O`: 342 to 343 °C.
On to `O=C(C[C@H](C(=O)N[C@H](CO)Cc1ccccc1)n1cc(-c2ccc(-c3ccccc3)cc2)cn1)OCc1ccccc1`, for which the melting point fell in the range of 116 to 117 °C.
The figure for `COC(=O)Nc1nc(Cc2ccccc2)c(C(=O)c2sc(NC(=O)OC)nc2Cc2ccccc2)s1` is 189 to 190 °C; for `CCOc1cc(OC(C)C)ccc1-c1nc(-c2ccc(OC(C)C)cc2O)nc(-c2ccc(OC(C)C)cc2O)n1` it is 163 to 167 °C; for `CC(C)=CCn1ncc(-c2ccc(S(C)(=O)=O)cc2)c(-c2ccc(F)cc2)c1=O` it is 169 to 172 °C.
For `CCCn1nc2c(N)nc3ccccc3c2c1CC(C)(C)NC(=O)c1ccc(F)cc1`, the melting point fell in the range of 168 to 169 °C.
The compound `FC(F)(F)C1(c2cc(Cl)cc(Cl)c2)CC(c2ccc(Br)c3ccccc23)=NO1` (centres undefined) returned a melting point of 127 to 130 °C.
The figure for `C=CCOC(=O)CCCCCCCCCCCCCCCCC` is 35 to 36 °C; for `O=C(O)c1ccc(-c2nc(-c3c(F)c(F)c(F)c(F)c3F)cs2)cc1` it is 273 to 274 °C.
As for `O=C(Nc1ccc(-n2nc(C(F)(F)F)cc2C(F)(F)F)cc1)c1ccc(F)cc1C(F)(F)F`, the melting point was in the range of 178 to 179 °C.
`CCCCc1n[nH]c(CCCC)n1` displayed a melting point of 50.5 to 51.5 °C.
The compound `Cc1nc(Nc2c([N+](=O)[O-])cc([N+](=O)[O-])cc2C(F)(F)F)c(Cl)c(C)c1Cl` gave a melting point of 131 to 133 °C.
In the case of `OCc1cccc2cc(-c3ccccc3)sc12`, the melting point was 125 to 126 °C.
Compound `CCCc1nn(-c2ccc(C(F)(F)F)cn2)cc1COc1ccc(CCC(=O)O)c(OC)c1` returned a melting point of 153 to 154 °C.
`NNc1cc(-c2ccccn2)ccn1` displayed a melting point of 120 to 121 °C.
Turning to `COc1ccccc1Oc1cccc2c1C(=O)N(C1CCC(=O)NC1=O)C2=O` (centres undefined), the melting point lay within 223 to 225 °C.
The compound `O=C1Nc2cc(-c3ccccc3)ccc2OC1CCO` (centres undefined) gave a melting point of 170 to 171 °C.
`CCOC(=O)C(C)(Sc1cc2ccccc2[nH]1)c1ccccc1` (centres undefined) returned a melting point of 97 to 99 °C.
Regarding `CCOC(=O)C(C)(C)Sc1ccc(O)cc1`, the melting point was in the range of 68 to 69 °C.
Compound `COc1ccc2c(c1)NC(=O)C(CCCBr)O2` (centres undefined) returned a melting point of 102 to 103 °C.
As for `CC(=O)OCCn1c([N+](=O)[O-])cnc1C=O`, the melting point was in the range of 203 to 205 °C.
Compound `Cc1oc(C=Cc2cccc(C(F)(F)F)c2)nc1CC(=O)O` displayed a melting point of 157 to 158 °C.
In the case of `Cc1cc(C2=NOC(c3cc(Cl)cc(Cl)c3)(C(F)(F)F)C2)ccc1C(=O)NC(N)=O` (centres undefined), the melting point was in the range of 201 to 205 °C.
`Cc1c(C(=O)O)oc2cc(S)ccc12` had a melting point of 230 to 232 °C.
For the compound `Cn1cc(-c2cccc(F)c2)c(=O)c(-c2cccc(F)c2)c1`, the melting point lay in the range of 149 to 151 °C.
`CCCNC(=O)Nc1ccc(SC)cc1C(=O)NCC1CCN(C(c2ccccc2)c2ccccc2)CC1` had a melting point of 196 to 198 °C.
The same measure for `CC(C(=O)O)C1CCCc2c1n(Cc1ccc(Cl)cc1)c1ccc(F)cc21` (centres undefined): 203 to 205 °C; for `COc1ccc2c(c1)CN(CCc1ccc(NC(=O)c3cccc4c(=O)c5cccc(OC)c5[nH]c34)cc1)CC2`: 213 to 216 °C; for `Cc1c(CC(=O)OC(OC(=O)Cc2cc(C(C)(C)C)c(O)c(C)c2C)(OC(=O)Cc2cc(C(C)(C)C)c(O)c(C)c2C)C(C)(C)C)cc(C(C)(C)C)c(O)c1C`: 159 °C.
As to `O=C(Cl)COc1ccc([N+](=O)[O-])cc1`, the melting point is 84 to 85 °C.
The figure for `CCOC(=O)Oc1ccc(S(=O)(=O)N2c3ccc(Cl)cc3-n3cccc3C2CC)cc1` (centres undefined) is 117 to 119 °C.
Turning to `CC(C)(C)OC(=O)NC(Cc1ccccc1)C(=O)Oc1ccc2ccccc2c1` (centres undefined), the melting point is 118 to 119 °C.
The figure for `CC=CCn1c(N(C(C)=O)c2cc(C)cc(C)c2)c(CC)c(=O)[nH]c1=O` is 218 to 220 °C; for `CC(C)n1nc(-c2ccc(OCC(N)=O)nc2-c2ccccc2)ccc1=O` it is 137 to 138 °C; for `NC(=NO)c1ncn2c1N1CCN=C1c1ccccc1-2` it is 209 to 212 °C.
In the case of `CCCCOC(=O)CNC(=O)c1ccc2cc(C(=O)OC)[nH]c2c1`, the melting point is 181 to 184 °C.
On to `Cc1cc(-c2nc3cccnn3c2-c2ccnc(NC(=O)NC3CCC(O)CC3)c2)ccc1F` (centres undefined), for which the melting point was 218 to 220 °C.
As to `CCOP(=O)(O)COCCn1cnc2c(=O)[nH]c(N)nc21`, the melting point was in the range of 192 to 194 °C.
`O=C(c1ccccc1)c1ccccc1N1C=NC(CCl)(C(=O)O)N1` (centres undefined) displayed a melting point of 90 to 93 °C.
For the compound `Nc1cc(OCc2cccc(I)c2)c(C(=O)NC2CN3CCC2CC3)cc1Cl` (centres undefined), the melting point is 102 to 104 °C.
Compound `Cc1cc(C)c(CP(=O)(c2ccccc2)c2ccccc2)c(-c2ccc(F)c(C)c2)c1` returned a melting point of 109 to 111 °C.
For the compound `COc1c([N+](=O)[O-])cc(C(C)=O)c2c1CCCC2`, the melting point lay in the range of 76 to 77 °C.
The figure for `CC(C)(C#N)c1cc(C(Cl)c2cncnc2)cc(C(C)(C)C#N)c1` (centres undefined) is 118 to 121 °C; for `CCOC(=O)C=C(C)Nc1ccc2nc[nH]c2c1` it is 160 to 162 °C; for `CCCCOC(=O)NCc1cccc(C(=O)C=CN(C)C)c1` it is 80 to 82 °C.
Regarding `NC(=O)CCC1CCC(=O)N1` (centres undefined), the melting point stood at 178 °C.
The compound `CC(C)(COCc1cccc(Oc2ccccc2)c1)c1ccccc1C(=O)O` gave a melting point of 98.5 to 102 °C.
The figure for `CC(=O)N1CCN(c2cncc(Cl)n2)CC1` is 106 to 108 °C.
Regarding `COC1(c2nc(Br)c(Sc3ccc(/C(C)=N/O)cc3)s2)CCOCC1`, the melting point is 130 °C.
Regarding `CC(C)(C)OC(=O)NCc1ccccc1-c1ccc(CO)cc1`, the melting point fell in the range of 89 to 93 °C.
`OCc1c(F)ccc(-n2cccc2)c1F` registered a melting point of less than 60 °C.
The same measure for `CN1CCC(c2cn(S(=O)(=O)c3c(F)cccc3F)c3ccc(OS(=O)(=O)c4c(F)cccc4F)cc23)CC1`: 95 to 98 °C; for `CC(C)N1OCC(=Cc2cc(C(C)(C)C)c(O)c(C(C)(C)C)c2)C1=O`: 178 to 180 °C; for `CN(C)CCNc1nc(Nc2cccc(NS(C)(=O)=O)c2)nc2[nH]cnc12`: 191 to 195 °C.
Compound `O=C(F)[C@@H]1C[C@H](F)CN1C(=O)OCC1c2ccccc2-c2ccccc21` returned a melting point of 127 to 128 °C.
On to `c1cc2c3c(cccc3c1)C(NCCCCCCCn1ccnc1)=N2`, for which the melting point fell in the range of 48 to 50 °C.
On to `Clc1cnc(N2CCNCC2)cn1`, for which the melting point was in the range of 98 to 102 °C.
`O=C(O)CCc1cnoc1-c1ccc([N+](=O)[O-])cc1` had a melting point of 204 to 205 °C.
Take `COc1nc(OS(=O)(=O)C(F)(F)F)cc2cccnc12`: the melting point lay within 99 to 101 °C.
The figure for `COc1cc(OC)nc(NC(=O)NS(=O)(=O)c2ncccc2CSC)n1` is 145 to 147 °C.
Consider `COc1c(N(C)C)cc(CC(C#N)=CNc2ccccc2)cc1N(C)C(C)=O`, for which the melting point is 176 to 178 °C.
For `COc1ccc(C#N)cc1-c1cc(-c2ccc(C#N)cc2[N+](=O)[O-])no1`, the melting point was in the range of 264 to 266 °C.
Compound `OCc1cn(-c2ccc(SC(F)(F)F)c(Cl)c2)cn1` showed a melting point of 105 to 106 °C.
The same measure for `Nc1nc2ccccc2c2c1ncn2COCCO`: 210 to 212 °C; for `COc1ccccc1-c1cccc(C(c2ccccc2)c2ccccc2)c1O`: 131 °C.
As for `CCOC1=CC2=CCC3C(CCC4(CC)C(=O)CC(OC(C)=O)C34)C2CC1` (centres undefined), the melting point is 189 °C.
